Where a name gives a salt, the structure may show the parent alone. Read-outs that look alike come from different tables or passages of the source. Blank lines part the entries; values can stand above or below the compound they belong to.
How the values were obtained:
TK6 cells [1] = settings: for Avg. % EMA+ / Avg. % M / Avg. % MN / Avg. % RS / Avg. M as % G2/M: human
TK6 cells [2] = test: Polyploidy as an aneugenic signature (flow cytometry, 96-well plate); settings: 0.025 μg paclitaxel/ml, approximately 24 hrs
TK6 cells [3] = test: Treatment with demecolcine and assessment of anti-H3-P performance (metaphase events by flow cytometry); format: cell-based, human; settings: 0.05 ng/ml, 5 hours
Experimental: TK6 cells were treated with 0 or 0.05 ng demecolcine/ml in T25 tissue culture flasks. At the start of treatment, cells were at 5×10^5/ml in a volume of 20 ml per flask. Flasks were incubated at 37° C., 5% CO2, and in a humid atmosphere. After 5 hours, flasks were removed and 1 ml aliquots were placed in to 15 ml centrifuge tubes. Cells were collected via centrifugation, and supernatants aspirated such that approximately 25 μl of supernatant remained per tube. Cells were gently resuspended with tapping. 300 μl “Lysis Solution 1” was added slowly to each tube (approximately 5 seconds per sample). […]
Samples were gently pipetted to resuspend the particles. […] SYTOX®-associated fluorescence emission was collected in the FITC channel, EMA-associated fluorescence was collected in the PerCP-Cy5 channel, and anti-H3-P-Alexa 647 associated fluorescence was collected in the APC channel. Events were triggered on FITC fluorescence. The flow cytometry gating strategy that was developed for this scoring application required events to meet each of several separate criteria before they were scored as nuclei, MN, chromatin debris, or metaphase chromosomes. […]
In this experiment, TK6 cells were treated with 0 or 0.05 ng/ml demecolcine, a metaphase blocking agent. […] However, the anti-H3-P associated fluorescence signal is able to differentiate between G2 and metaphase chromosomes. […]

Compound: COC(=O)Nc1nc2ccccc2[nH]1 [Carbendazim]
Avg. % EMA+ (TK6 cells [1]; 0.125 μg/ml): 2.3%
Avg. % M (TK6 cells [1]; 0.125 μg/ml): 1.6%
Avg. % MN (TK6 cells [1]; 0.125 μg/ml): 0.8%
Avg. % RS (TK6 cells [1]; 0.125 μg/ml): 96.9%
Avg. M as % G2/M (TK6 cells [1]; 0.125 μg/ml): 6.1%
Avg. % EMA+ (TK6 cells [1]; 0.5 μg/ml): 6.4%
Avg. % M (TK6 cells [1]; 0.5 μg/ml): 1.6%
Avg. % MN (TK6 cells [1]; 0.5 μg/ml): 3.8%
Avg. % RS (TK6 cells [1]; 0.5 μg/ml): 71.2%
Avg. M as % G2/M (TK6 cells [1]; 0.5 μg/ml): 10.3%
Avg. % EMA+ (TK6 cells [1]; 1 μg/ml): 10.0%
Avg. % M (TK6 cells [1]; 1 μg/ml): 5.6%
Avg. % MN (TK6 cells [1]; 1 μg/ml): 14.7%
Avg. % RS (TK6 cells [1]; 1 μg/ml): 49.7%
Avg. M as % G2/M (TK6 cells [1]; 1 μg/ml): 24.9%
Avg. % EMA+ (TK6 cells [1]; 2 μg/ml): 12.0%
Avg. % M (TK6 cells [1]; 2 μg/ml): 5.4%
Avg. % MN (TK6 cells [1]; 2 μg/ml): 22.3%
Avg. % RS (TK6 cells [1]; 2 μg/ml): 43.3%
Avg. M as % G2/M (TK6 cells [1]; 2 μg/ml): 18.5%

Compound: COc1cc2c(c(OC)c1OC)-c1ccc(OC)c(=O)cc1[C@@H](NC(C)=O)CC2 [Colchicine]
cytotoxicity (dose-dependent reductions to RS), FIG. 3 (TK6 cells [1]): cytotoxic
genotoxicity (increased MN observed), FIG. 3 dose-response (TK6 cells [1]): genotoxic

Compound: COC1=CC(=O)C[C@@H](C)[C@]12Oc1c(Cl)c(OC)cc(OC)c1C2=O [Griseofulvin]
Avg. % EMA+ (TK6 cells [1]; 0.375 μg/ml): 3.0%
Avg. % M (TK6 cells [1]; 0.375 μg/ml): 1.9%
Avg. % RS (TK6 cells [1]; 0.375 μg/ml): 96.6%
Avg. M as % G2/M (TK6 cells [1]; 0.375 μg/ml): 6.0%
Avg. % EMA+ (TK6 cells [1]; 0.75 μg/ml): 2.6%
Avg. % M (TK6 cells [1]; 0.75 μg/ml): 1.8%
Avg. % RS (TK6 cells [1]; 0.75 μg/ml): 99.5%
Avg. M as % G2/M (TK6 cells [1]; 0.75 μg/ml): 5.8%
Avg. % EMA+ (TK6 cells [1]; 3 μg/ml): 8.2%
Avg. % M (TK6 cells [1]; 3 μg/ml): 3.0%
Avg. % RS (TK6 cells [1]; 3 μg/ml): 64.9%
Avg. M as % G2/M (TK6 cells [1]; 3 μg/ml): 19.4%
Avg. % EMA+ (TK6 cells [1]; 6 μg/ml): 13.5%
Avg. % M (TK6 cells [1]; 6 μg/ml): 5.8%
Avg. % RS (TK6 cells [1]; 6 μg/ml): 46.6%
Avg. M as % G2/M (TK6 cells [1]; 6 μg/ml): 26.4%

Compound: NC(=O)NO [HU, Hydroxyurea]
Avg. % EMA+ (TK6 cells [1]; 0.5 μg/ml): 2.4%
Avg. % M (TK6 cells [1]; 0.5 μg/ml): 1.6%
Avg. % MN (TK6 cells [1]; 0.5 μg/ml): 0.4%
Avg. % RS (TK6 cells [1]; 0.5 μg/ml): 100.9%
Avg. M as % G2/M (TK6 cells [1]; 0.5 μg/ml): 5.4%
Avg. % EMA+ (TK6 cells [1]; 0.9 μg/ml): 2.3%
Avg. % M (TK6 cells [1]; 0.9 μg/ml): 1.6%
Avg. % MN (TK6 cells [1]; 0.9 μg/ml): 0.5%
Avg. % RS (TK6 cells [1]; 0.9 μg/ml): 97.1%
Avg. M as % G2/M (TK6 cells [1]; 0.9 μg/ml): 5.9%
Avg. % EMA+ (TK6 cells [1]; 3.8 μg/ml): 5.8%
Avg. % M (TK6 cells [1]; 3.8 μg/ml): 1.7%
Avg. % MN (TK6 cells [1]; 3.8 μg/ml): 0.9%
Avg. % RS (TK6 cells [1]; 3.8 μg/ml): 65.7%
Avg. M as % G2/M (TK6 cells [1]; 3.8 μg/ml): 4.7%
Avg. % EMA+ (TK6 cells [1]; 7.5 μg/ml): 13.7%
Avg. % M (TK6 cells [1]; 7.5 μg/ml): 1.0%
Avg. % MN (TK6 cells [1]; 7.5 μg/ml): 1.9%
Avg. % RS (TK6 cells [1]; 7.5 μg/ml): 44.3%
Avg. M as % G2/M (TK6 cells [1]; 7.5 μg/ml): 3.9%

Compound: CN[C@H]1CCc2cc(OC)c(OC)c(OC)c2-c2ccc(OC)c(=O)cc21 [demecolcine, Demecolcine]
frequency of 4n anti-H3-P-positive events, FIG. 2 (TK6 cells [3]): greatly increased

Now from value to compound:

Avg. % EMA+ (TK6 cells [1]; 0.005 μg/ml): 2.3%
Avg. % M (TK6 cells [1]; 0.005 μg/ml): 1.6%
Avg. % RS (TK6 cells [1]; 0.005 μg/ml): 83.3%
Avg. M as % G2/M (TK6 cells [1]; 0.005 μg/ml): 5.7%
Avg. % EMA+ (TK6 cells [1]; 0.01 μg/ml): 3.7%
Avg. % M (TK6 cells [1]; 0.01 μg/ml): 1.4%
Avg. % RS (TK6 cells [1]; 0.01 μg/ml): 69.6%
Avg. M as % G2/M (TK6 cells [1]; 0.01 μg/ml): 5.2%
Avg. % EMA+ (TK6 cells [1]; 0.02 μg/ml): 5.3%
Avg. % M (TK6 cells [1]; 0.02 μg/ml): 1.2%
Avg. % RS (TK6 cells [1]; 0.02 μg/ml): 52.6%
Avg. M as % G2/M (TK6 cells [1]; 0.02 μg/ml): 3.8%
Compound: COc1cc([C@@H]2c3cc4c(cc3[C@@H](O[C@@H]3O[C@@H]5CO[C@@H](C)O[C@H]5[C@H](O)[C@H]3O)[C@H]3COC(=O)[C@H]23)OCO4)cc(OC)c1O [Etoposide]

Avg. % EMA+ (TK6 cells [1]; 1.6 μg/ml): 3.7%
Avg. % M (TK6 cells [1]; 1.6 μg/ml): 1.7%
Avg. % MN (TK6 cells [1]; 1.6 μg/ml): 1.5%
Avg. M as % G2/M (TK6 cells [1]; 1.6 μg/ml): 7.1%
Avg. % EMA+ (TK6 cells [1]; 2.4 μg/ml): 7.3%
Avg. % M (TK6 cells [1]; 2.4 μg/ml): 2.2%
Avg. % MN (TK6 cells [1]; 2.4 μg/ml): 4.4%
Avg. M as % G2/M (TK6 cells [1]; 2.4 μg/ml): 9.7%
Avg. % EMA+ (TK6 cells [1]; 3.3 μg/ml): 10.0%
Avg. % M (TK6 cells [1]; 3.3 μg/ml): 3.4%
Avg. % MN (TK6 cells [1]; 3.3 μg/ml): 9.2%
Avg. M as % G2/M (TK6 cells [1]; 3.3 μg/ml): 12.2%
Avg. % EMA+ (TK6 cells [1]; 4.9 μg/ml): 12.3%
Avg. % M (TK6 cells [1]; 4.9 μg/ml): 4.4%
Avg. % MN (TK6 cells [1]; 4.9 μg/ml): 12.5%
Avg. M as % G2/M (TK6 cells [1]; 4.9 μg/ml): 11.3%
Avg. % EMA+ (TK6 cells [1]; 6.5 μg/ml): 13.2%
Avg. % M (TK6 cells [1]; 6.5 μg/ml): 4.6%
Avg. % MN (TK6 cells [1]; 6.5 μg/ml): 15.8%
Avg. M as % G2/M (TK6 cells [1]; 6.5 μg/ml): 10.2%
induction of polyploid nuclei (8n), FIG. 6 (TK6 cells [2]): robust induction
Compound: CC(=O)O[C@H]1C(=O)[C@@]2(C)[C@H]([C@H](OC(=O)c3ccccc3)[C@]3(O)C[C@H](OC(=O)[C@H](O)[C@@H](NC(=O)c4ccccc4)c4ccccc4)C(C)=C1C3(C)C)[C@]1(OC(C)=O)CO[C@@H]1C[C@@H]2O [Paclitaxel]

Avg. % EMA+ (TK6 cells [1]; 0.1 μg/ml): 2.0%
Avg. % M (TK6 cells [1]; 0.1 μg/ml): 1.8%
Avg. % MN (TK6 cells [1]; 0.1 μg/ml): 0.7%
Avg. % RS (TK6 cells [1]; 0.1 μg/ml): 88.0%
Avg. M as % G2/M (TK6 cells [1]; 0.1 μg/ml): 8.6%
Avg. % EMA+ (TK6 cells [1]; 0.2 μg/ml): 2.7%
Avg. % M (TK6 cells [1]; 0.2 μg/ml): 1.5%
Avg. % MN (TK6 cells [1]; 0.2 μg/ml): 1.6%
Avg. % RS (TK6 cells [1]; 0.2 μg/ml): 79.6%
Avg. M as % G2/M (TK6 cells [1]; 0.2 μg/ml): 9.0%
Avg. % EMA+ (TK6 cells [1]; 0.4 μg/ml): 4.0%
Avg. % M (TK6 cells [1]; 0.4 μg/ml): 2.7%
Avg. % MN (TK6 cells [1]; 0.4 μg/ml): 3.3%
Avg. % RS (TK6 cells [1]; 0.4 μg/ml): 70.6%
Avg. M as % G2/M (TK6 cells [1]; 0.4 μg/ml): 17.1%
Avg. % EMA+ (TK6 cells [1]; 0.8 μg/ml): 5.8%
Avg. % M (TK6 cells [1]; 0.8 μg/ml): 7.2%
Avg. % MN (TK6 cells [1]; 0.8 μg/ml): 7.5%
Avg. % RS (TK6 cells [1]; 0.8 μg/ml): 48.0%
Avg. M as % G2/M (TK6 cells [1]; 0.8 μg/ml): 32.0%
Avg. % EMA+ (TK6 cells [1]; 1.6 μg/ml): 8.8%
Avg. % M (TK6 cells [1]; 1.6 μg/ml): 4.4%
Avg. % MN (TK6 cells [1]; 1.6 μg/ml): 12.6%
Avg. % RS (TK6 cells [1]; 1.6 μg/ml): 37.6%
Avg. M as % G2/M (TK6 cells [1]; 1.6 μg/ml): 14.1%
Compound: CC[C@]1(O)C[C@@H]2CN(CCc3c([nH]c4ccccc34)[C@@](C(=O)OC)(c3cc4c(cc3OC)N(C)[C@H]3[C@@](O)(C(=O)OC)[C@H](OC(C)=O)[C@]5(CC)C=CCN6CC[C@]43[C@@H]65)C2)C1 [Vinblastine sulfate]

Avg. % EMA+ (TK6 cells [1]; 0.125 μg/ml): 3.3%
Avg. % M (TK6 cells [1]; 0.125 μg/ml): 1.9%
Avg. % MN (TK6 cells [1]; 0.125 μg/ml): 0.6%
Avg. % RS (TK6 cells [1]; 0.125 μg/ml): 91.9%
Avg. M as % G2/M (TK6 cells [1]; 0.125 μg/ml): 7.1%
Avg. % EMA+ (TK6 cells [1]; 0.5 μg/ml): 5.1%
Avg. % M (TK6 cells [1]; 0.5 μg/ml): 2.1%
Avg. % MN (TK6 cells [1]; 0.5 μg/ml): 2.7%
Avg. % RS (TK6 cells [1]; 0.5 μg/ml): 72.1%
Avg. M as % G2/M (TK6 cells [1]; 0.5 μg/ml): 8.4%
Avg. % EMA+ (TK6 cells [1]; 1 μg/ml): 8.2%
Avg. % M (TK6 cells [1]; 1 μg/ml): 3.4%
Avg. % MN (TK6 cells [1]; 1 μg/ml): 7.9%
Avg. % RS (TK6 cells [1]; 1 μg/ml): 53.1%
Avg. M as % G2/M (TK6 cells [1]; 1 μg/ml): 13.5%
Compound: CC[C@]1(O)C[C@H]2CN(CCc3c([nH]c4ccccc34)[C@@](C(=O)OC)(c3cc4c(cc3OC)N(C=O)[C@H]3[C@@](O)(C(=O)OC)[C@H](OC(C)=O)[C@]5(CC)C=CCN6CC[C@]43[C@@H]65)C2)C1 [Vincristine sulfate]

Reference: patent US20140017673A1, “METHOD FOR ENUMERATING EUKARYOTIC CELL MICRONUCLEI WITH AN EMPHASIS ON SIMULTANEOUSLY ACQUIRING CYTOTOXICITY AND MODE OF ACTION INFORMATION” (priority 2012, published 2014)
